Values of other authors in patent US20090241222A1, “TANDEM REAPEAT DNA CONSTRUCTS PRODUCING PROTEINS THAT ATTACK PLANT PATHOGENIC VIRUSES, FUNGI, AND BACTERIA BY DISRUPTING TRANSCRIPTION FACTORS ESSENTIAL FOR REPLICATION THEREOF IN PLANTS” (priority 2008, published 2009).

Test system: Magnaporthe grisea
Details: PA treated plants; cited from earlier work

SMILES: O=C(O)c1ccccn1 [picolinic acid, 2-pyridine carboxylic acid]
- resistance against M. grisea: enhanced
